Active and inactive are the calls of the source. The rule behind the calls is not given here.
Experiments:
[1] = molecular target: Focal adhesion kinase 1 (Homo sapiens) (UniProt Q05397); assay: Inhibition of human FAK at 30 uM
[2] = Antiproliferative activity against human MDA-MB-231M cells after 96 hrs by MTT assay; assay type: functional, cell-based
[3] = molecular target: Focal adhesion kinase 1 (Homo sapiens) (UniProt Q05397); assay: Inhibition of FAK in human MDA-MB-231M cells assessed as phosphorylated tyrosine 397 levels at 25 uM after 1 hr by Western blot; assay type: cell-based
Homo sapiens = organism: Homo sapiens; assay: Inhibition of human MDA-MB-231M cell motility assessed as remaining wound area at 25 uM after 24 hrs by wound healing assay; assay type: functional
MDA-MB-231 = assay: Antiinvasive activity against human MDA-MB-231 cells at 25 uM; assay type: functional, cell-based

Chain of Focal adhesion kinase 1 (Homo sapiens) (Q05397 2-1052 limits assumed): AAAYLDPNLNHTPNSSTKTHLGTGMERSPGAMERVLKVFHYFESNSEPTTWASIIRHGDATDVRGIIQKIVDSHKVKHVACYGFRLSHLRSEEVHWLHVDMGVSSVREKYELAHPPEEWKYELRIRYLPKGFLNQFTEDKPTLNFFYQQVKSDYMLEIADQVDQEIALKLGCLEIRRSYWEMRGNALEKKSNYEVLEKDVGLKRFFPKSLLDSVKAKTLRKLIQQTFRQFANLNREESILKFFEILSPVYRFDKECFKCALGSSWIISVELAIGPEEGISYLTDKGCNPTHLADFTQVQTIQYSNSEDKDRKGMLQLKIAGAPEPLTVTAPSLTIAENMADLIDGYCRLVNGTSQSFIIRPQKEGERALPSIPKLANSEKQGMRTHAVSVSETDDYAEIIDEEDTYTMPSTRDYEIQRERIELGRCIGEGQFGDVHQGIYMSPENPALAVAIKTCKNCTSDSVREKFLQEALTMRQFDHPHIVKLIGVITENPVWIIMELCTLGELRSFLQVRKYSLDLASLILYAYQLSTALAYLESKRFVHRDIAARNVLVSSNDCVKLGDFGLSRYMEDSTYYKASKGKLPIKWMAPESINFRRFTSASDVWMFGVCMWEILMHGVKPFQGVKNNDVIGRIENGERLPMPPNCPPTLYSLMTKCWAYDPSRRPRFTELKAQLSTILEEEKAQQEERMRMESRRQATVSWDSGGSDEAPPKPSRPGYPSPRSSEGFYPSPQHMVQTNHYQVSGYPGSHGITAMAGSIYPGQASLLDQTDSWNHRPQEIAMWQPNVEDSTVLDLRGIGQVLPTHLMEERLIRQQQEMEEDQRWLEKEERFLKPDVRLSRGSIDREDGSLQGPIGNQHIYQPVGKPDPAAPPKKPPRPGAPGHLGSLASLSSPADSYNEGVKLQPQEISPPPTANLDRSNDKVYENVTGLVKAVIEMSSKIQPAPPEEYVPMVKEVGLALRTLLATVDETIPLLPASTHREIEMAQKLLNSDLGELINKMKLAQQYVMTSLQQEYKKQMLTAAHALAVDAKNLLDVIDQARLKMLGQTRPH

inhibition [1]: 30%
Activity [3]: Active
Structure (SMILES): C=CCOC(=O)N1c2ccc(OCCCOC3CCCCO3)cc2C[C@H]1[C@@H](CC=C)OC(C)=O (mixture of isomers)
IC50 [2]: 38.7 µM
Activity (Homo sapiens): Active
Activity (MDA-MB-231): Active

Source: ChEMBL document CHEMBL1142509, “Building skeletally diverse architectures on the Indoline Scaffold: the discovery of a chemical probe of focal adhesion kinase signaling networks” (Bioorg Med Chem, 2008)
